{"source": "paper PMC6962712", "about": "“Glucose-6-Phosphate Upregulates Txnip Expression by Interacting With MondoA” (Frontiers in Molecular Biosciences, 2020)", "target": "T1, MondoA/Mlx (Homo sapiens, UniProt Q9HAP2)", "T1 construct": "gene MLXIP; endogenous full-length MondoA/Mlx heterodimer in nuclear extract of Bcap37 cells, not purified; with Max-like protein X", "T1 sequence (Q9HAP2 2-919)": "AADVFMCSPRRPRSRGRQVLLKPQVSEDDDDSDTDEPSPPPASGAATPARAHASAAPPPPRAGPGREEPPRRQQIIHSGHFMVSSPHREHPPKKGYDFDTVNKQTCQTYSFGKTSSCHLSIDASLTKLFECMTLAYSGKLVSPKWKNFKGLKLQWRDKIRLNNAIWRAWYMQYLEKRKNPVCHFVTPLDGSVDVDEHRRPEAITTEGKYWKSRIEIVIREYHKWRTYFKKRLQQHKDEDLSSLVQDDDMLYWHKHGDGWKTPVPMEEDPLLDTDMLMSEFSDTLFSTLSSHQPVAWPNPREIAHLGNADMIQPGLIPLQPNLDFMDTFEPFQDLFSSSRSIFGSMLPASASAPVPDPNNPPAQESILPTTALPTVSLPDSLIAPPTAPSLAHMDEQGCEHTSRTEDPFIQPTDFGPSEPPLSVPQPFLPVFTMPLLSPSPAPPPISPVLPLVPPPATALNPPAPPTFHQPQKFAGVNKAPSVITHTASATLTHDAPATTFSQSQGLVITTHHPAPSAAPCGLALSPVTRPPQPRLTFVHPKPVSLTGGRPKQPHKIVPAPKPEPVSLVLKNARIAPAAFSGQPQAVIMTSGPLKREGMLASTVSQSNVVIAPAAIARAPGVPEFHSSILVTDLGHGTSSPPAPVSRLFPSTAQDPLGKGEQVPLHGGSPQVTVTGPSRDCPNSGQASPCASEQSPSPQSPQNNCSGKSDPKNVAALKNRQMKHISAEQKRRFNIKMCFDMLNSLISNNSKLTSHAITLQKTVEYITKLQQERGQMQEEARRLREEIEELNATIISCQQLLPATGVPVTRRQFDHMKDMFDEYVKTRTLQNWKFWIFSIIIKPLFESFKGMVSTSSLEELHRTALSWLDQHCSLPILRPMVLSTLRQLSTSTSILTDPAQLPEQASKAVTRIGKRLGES", "T1 sequence (Q9UH92 1-298 partner)": "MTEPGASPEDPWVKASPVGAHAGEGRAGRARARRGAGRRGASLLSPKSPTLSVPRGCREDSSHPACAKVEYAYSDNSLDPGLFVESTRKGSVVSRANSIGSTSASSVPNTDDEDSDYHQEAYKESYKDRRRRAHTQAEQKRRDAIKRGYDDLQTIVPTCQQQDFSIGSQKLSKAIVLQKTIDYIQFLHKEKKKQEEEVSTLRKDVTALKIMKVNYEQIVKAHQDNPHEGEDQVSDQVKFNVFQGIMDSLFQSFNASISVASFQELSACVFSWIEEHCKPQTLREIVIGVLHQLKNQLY", "test": "EMSA, biotinylated Txnip ChoRE probe", "assay_type": "biochemical", "settings": "Bcap37 nuclear extract; G6PNa2 added in vitro (e.g. 0.05 and 0.25 mM); activator of promoter binding; indirect read-out, not a direct binding test"}
{"compound": "O=P(O)(O)OC[C@H]1OC(O)[C@H](O)[C@@H](O)[C@@H]1O", "note": "(stereo partly shown) [G6PNa2]", "values": [{"measurement": "EMSA, biotinylated Txnip ChoRE probe", "result": "binding of MondoA to the promoter probe was significantly promoted by the activation of G6PNa2"}]}
